The conditions of data set [1]: in vivo; cited from earlier work.
In the next data set the test system is IFN-gamma. Briefly: Mitogen (Concanavalin A) induced IFN-gamma production by splenocyte mononuclear cells of treated mice, ELISA. The note with it: splenocytes of B16-bearing mice treated as in Example 3, Concanavalin A 5 μg/mL, saline control about 200 ng/mL, FIG. 2. The data set is classed as in vivo. The procedure:
FIG. 2 illustrates the stimulation of mitogen induced IFN-gamma production by pterostilbene in mice. Mice were treated as described in FIG. 1 (from left to right: saline; 25 μg/kg pterostilbene; 500 IU/mouse IL-2; and a combination of IL-2 and pterostilbene at the indicated concentrations). Mononuclear cells were obtained and plated in 96-well plates and treated with Concanavalin A at 5 μg/mL. IFN-gamma was assessed by ELISA. The y-axis is expressed as ng/mL.
Mice from Example 3 where euthanized by cervical dislocation and spleens were excised in a sterile manner. Splenocyte mononuclear cells were obtained by hypotonic lysis and washed 3 times in PBS. Mononuclear cells were plated in 96 well plates and treated with Concanavalin A at 5 μg/mL. Interferon gamma was assessed by ELISA and expressed as ng/mL. […] In contrast, mononuclear cells of mice treated with pterostilbene alone expressed about 900 ng/mL IFN-gamma, and mononuclear cells of mice treated with the combination of pterostilbene and IL-2 expressed about 1500 ng/mL IFN-gamma. As disclosed herein, enhanced expression of IFN-gamma elicits an immune response.

For data set [2] the following is noted: in vivo; cited from earlier work. This is another data set of the same source.
The conditions of data set [3]: cited from earlier work.

In the case of `Oc1ccc(/C=C/c2cc(O)cc(O)c2)cc1` [t-RESV, trans-3,5,4′-trihydroxystilbene], the systemic bioavailability result in data set [1] is recorded as “low”.
With `COc1cc(/C=C/c2ccc(O)cc2)cc(OC)c1` [pterostilbene, trans-3,5-dimethoxy-4′-hydroxy-trans-stilbene], the “IFN-gamma expressed by mononuclear cells” value in the data set with IFN-gamma is given as “about 900 ng/mL”. Also, in data set [2], the half-life entry was “approximately 2 hr”. In data set [3], the “solubility in aqueous solution” value is recorded as “sparingly soluble”.
